Where two headings read alike, the source gives them in different places.
What was measured:
[1] = Screening of acyclic isoprenoid esters for tumor-suppressive activity in vitro; assay type: cell-based
Excerpt: (§1) We synthesized and tested a series of esters formed between acyclic isoprenoid alcohols (geraniol, farnesol, nerol, citronellol) and diverse acids (proprionate, isobutyrate, formate, butyrate, caprylate, isovalerate, benzoate, tiglate, anthranilate). […] See Mo, et al. Cancer Letters 157:145-153, 2000 (incorporated by reference).

implanted B16 melanomas [2] = conditions: cited from earlier work
[3] = system: Murine B16 F10 melanoma cells; experiment: Growth of murine B16 F10 melanoma cells in monolayer culture, viable cell count by hemocytometer, photomicrographs; assay type: cell-based; conditions: for apoptosis: 5 μmol/L, B16 melanoma cells, photomicrographs; for IC50: read-out: IC50, inhibition of net increase in cell count
Protocol: Murine B16 F10 melanoma cells (He, L., et al., supra, 1997) were grown in monolayer culture (35×10 mm tissue culture dishes) in 3 ml RPMI 1640 medium (Sigma Biosciences, St. Louis, Mo.) supplemented with 10% fetal bovine serum (FBS, Sigma Biosciences) and 2% penicillin/streptomycin (Penicillin-Streptomycin Liquid, 1×10^7 units penicilin and 1×10^7 μg streptomycin/L of 0.85% saline, GIBCO BRL, Grand Island, N.Y.). Cultures, seeded with 3.3×10^4 cells/mL, were incubated for 24 hours at 37° C. in a humidified atmosphere of 5% CO2. The medium was decanted and replaced with fresh medium containing the test agents and incubations were continued for 48 hours. M363 and M364 were dissolved in ethanol, and lovastatin (Mevinolin, Sigma) in chloroform. […] The medium and detached (apoptotic) cells were decanted, the monolayer was washed twice with Hanks' Balanced Salt Solution (HBSS, Sigma Biosciences) and then incubated with a trypsin-EDTA solution (Sigma Biosciences) at 37° C. for 2 minutes. Trypsin was inactivated by suspending the cells in medium containing 10% FBS. The trypsinized cells were harvested by centrifugation (250×g) and re-suspended in HBSS. Viable cells, cells that excluded 0.4% trypan blue (GIBCO BRL), were counted with a hemocytometer; 0-time (24-h) cell counts were deducted from final cell counts to provide an estimate of the net increase in cell number.
Photomicrographs (100×, 200× and 400×) of representative fields of cultures of B16 melanoma cells were made with a Labopot-2 microscope (Nikon, Japan) equipped with a SenSys digital camera (Photometrics Tucson, Ariz.) and image-acquisition software (MetaMorph Imaging Systems, Universal Imaging Corporation, West Chester, Pa.).
(§2) The IC50 value represents the concentration of an isoprenoid required to inhibit the net increase in cell count by 50% at a time point within the linear growth period plotted for control cells. We determined the IC50 value by plotting cell number against isoprenoid concentration.

[4] = system: murine B16 melanoma cells
[5] = system: pancreatic tumors implanted in Syrian Golden hamsters; conditions: 90 mmol/kg diet; cited from earlier work
[6] = system: Human HL-60 acute promyelocytic leukemia cells; experiment: Growth of human HL-60 leukemia cells in suspension culture, viable cell count by hemocytometer; assay type: cell-based; conditions: human HL-60 promyelocytic leukemia cells, 24 hours; read-out: IC50, inhibition of net increase in cell count
Protocol: Human HL-60 acute promyelocytic leukemia cells (CCL-240, ATCC) were grown in suspension culture (25 cm^2 flasks) in 8 mL RPMI 1640 medium with 20% FBS and 2% penicillin/streptomycin. Cultures, seeded with 1.25×10^8 cells/L, were incubated with test agents for 24 hours at 37° C. in a humidified atmosphere of 5% CO2. The cells were then collected by centrifugation (250×g) and re-suspended in HBSS. Viable cells, cells that excluded 0.4% trypan blue, were counted with a hemocytometer; 0-time (seeding) cell counts were deducted from final cell counts to provide an estimate of the net increase in cell number.
as §2

[7] = M364 dietary toxicity study in mice; assay type: in vivo, C57BL6 female mice
Protocol: M364 toxicity and efficacy studies are in progress. Weanling C57BL6 female mice (Harlan Sprague Dawley, Madison, Wis.) are housed in groups of five to six on Cellu-Dri bedding (Waldschmidt & Sons, Inc., Madison, Wis.) in stainless steel cages and maintained at 25° C. with a 12-hour light:dark cycle. Three groups of mice (11/group) are being fed AIN-93G diet supplemented with 0 (A, control), 1 (B) and 10 (C) mmol M364/kg diet. Food intakes for mice are recorded daily and mice are weighed on alternate days. Results to date are mixed. […] As a consequence, the body weight of these mice decreased from 13.6 to 11.7 g; on removing the agent (M364) from the diet the mice rapidly regained body weight.

[8] = system: Murine B16(F10) melanoma cells; experiment: CellTiter 96 Aqueous One Solution Cell Proliferation Assay; assay type: cell-based; conditions: 40 hour growth of B16 melanoma cells, 1000 cells/well; read-out: IC50, net absorbance at 490 nm
Protocol: Murine B16(F10) melanoma cells were grown in monolayer culture (96-well tissue culture plate, Fisher Scientific) in 0.1 mL of RPMI 1640 medium (Sigma) supplemented with 10% fetal bovine serum (Sigma) and 80 mg/L of gentamycin (Sigma). Cultures were seeded in triplicate (0 to 2450 cells/well with an increment of 350 cells) and incubated for 24 hours or 64 hours at 37° C. in a humidified atmosphere of 5% CO2. At 24 hours the medium was decanted from each well and replaced with fresh medium. Cell populations of all wells were determined at either 24 hours (0 time, 3 wells) or 64 hours (40 hours, all other wells) by adding 20 μl of CellTiter 96® Aqueous One Solution (Promega, Madison, Wis.) to each well; the plate was held in dart at 37° C. for 2 hours and then read at 490 nm with a SPECTRAmax® 190 multi-plate reader with SOFTmax® PRO (Molecular Devices, Sunnyvale, Calif.). The net absorbance, the difference between the 0 time and 40 hours values, plotted on cell inoculation density is linear to 2000 cells/well (FIG. 6). We then applied this optical method to the estimation of the IC50 for M364.
Plates seeded with 1000 cells/well, the midpoint of cell inoculation density (FIG. 6), were cultured as described above. The medium added at 24 hours (0 time) to experimental wells contained 0-10 μmol/L M364 ([4-(3,7,11-trimethyl-2,6,10-dodecatrienyloxy]-phenyl acetate).

implanted B16 melanomas [9] = experiment: Growth of implanted B16 melanomas, agent in diet; assay type: in vivo
Excerpt: as §1
We note that the farnesyl moiety of the test agent comprised trans, trans and cis, trans isomers. […] The prospect of a chemotherapeutic application of […] is dimmed by findings that its very potent tumor-suppressive action is markedly attenuated by […], an essential dietary constituent (Qureshi, A., et al., J. Nutr. 126:389-394, 1996).

[10] = murine melanoma B16 cells, 48 hours, hemocytometer

C/C=C(\C)C(=O)OC/C=C(\C)CCC=C(C)C [geranyl tiglate]
tumor-suppressive activity in vitro [1]: significant tumor-suppressive activity

CC(C)=CCC/C(C)=C/CC/C(C)=C/CC[C@]1(C)CCc2cc(O)c(C)c(C)c2O1 [γ-tocotrienol]
growth of implanted B16 melanomas (implanted B16 melanomas [2]; 0.116 mmol/kg diet): suppressed the growth
efficacy in suppressing growth of implanted melanomas relative to farnesol (implanted B16 melanomas [2]; <1 mmol/kg diet): ~100 ×

CC(C)=CCCC(C)=CCCC(C)=CCOC(=O)c1ccccc1 [farnesyl benzoate]
tumor-suppressive activity in vitro [1]: significant tumor-suppressive activity

CC(C)=CCC/C(C)=C/COC(=O)c1ccccc1N [geranyl anthranilate]
tumor-suppressive activity in vitro [1]: significant tumor-suppressive activity

CC(C)=CCC/C(C)=C/COC(=O)c1ccccc1 [geranyl benzoate]
tumor-suppressive activity in vitro [1]: significant tumor-suppressive activity

C/C=C(\C)C(=O)OCC=C(C)CCC=C(C)CCC=C(C)C [farnesyl tiglate]
tumor-suppressive activity in vitro [1]: significant tumor-suppressive activity

CC[C@H](C)C(=O)O[C@H]1C[C@@H](C)C=C2C=C[C@H](C)[C@H](CC[C@@H]3C[C@@H](O)CC(=O)O3)[C@H]21 [lovastatin]
suppression of cell growth ([3]; lovastatin 0.75 μmol/L, B16 cells): 25%
increase in portion of cells in G1 ([4]; lovastatin 0.75 μmol/L): 33%

CC(C)=CCCC(C)=CCCC(C)=CCO [farnesol]
growth of implanted pancreatic tumors [5]: suppressed the growth

CC(=O)Oc1ccc(OCC=C(C)CCC=C(C)CCC=C(C)C)cc1 [M364, [4-(3,7,11-trimethyl-2,6,10-dodecatrienyloxy]-phenyl acetate]
IC50 [6]: 4.9 ± 3.7 µM
body weight and general appearance ([7]; 1 mmol M364/kg diet): match the controls
general condition of mice ([7]; 10 mmol M364/kg diet): remained healthy and active
food intake ([7]; 10 mmol M364/kg diet, 6 day exposure): decreased
body weight after exposure to diet ([7]; 10 mmol M364/kg diet, 6 day exposure, decreased from 13.6 g, regained on removing agent): 11.7 g
apoptosis [3]: initiated apoptosis
suppression of cell growth ([3]; M364 1 μmol/L, B16 cells): 45%
IC50 [3, 10]: 2 ± 0.6 µM
IC50 [8]: 2.2 µM
increase in proportion of cells in G1 ([4]; M364 1 μmol/L): 33%

CC(C)=CCCC(C)=CCCC(C)=CCOC(=O)c1ccccc1N [farnesyl anthranilate]
IC50 [6]: 80 ± 10 µM
morphological changes of cells ([3]; 100 μmol/L, B16 cells, 400× photomicrograph FIG. 4F): morphological changes similar to those attained with 10 μmol M364
IC50 ([3]; Mus musculus, 48 h): 45 ± 6 µM
tumor-suppressive activity in vitro [1]: significant tumor-suppressive activity
growth of implanted B16 melanomas (implanted B16 melanomas [9]; 1.5 mmol/kg diet): substantially suppressed the growth
effect of dietary α-tocopherol on the agent's action (implanted B16 melanomas [9]; dietary α-tocopherol): did not compromise

CC(=O)Oc1ccc(OCC=C(C)CCC=C(C)C)cc1 [M363, [4-(3,7-dimethyl-2,6-octadienyloxy]-phenyl acetate]
IC50 [6]: 58.6 ± 2.3 µM
apoptosis [3]: initiated apoptosis
IC50 [3, 10]: 5.1 ± 0.8 µM
